The values that follow come from US12138256B2, “Treatment of cardiopulmonary disorders” (Bayer Aktiengesellschaft, priority 2021, dated 2024).

Data set [1] can be described thus: Particle size distribution by laser diffraction with dry dispersion. The class given is physicochemical. The following applies: after micronization, dry measurement (3 or 4 bar). The method, then: All measurements cited in the above tables were obtained by laser diffraction with dry dispersion using compressed air. Measuring in aqueous suspension with surfactants may lead to smaller particle sizes (×90 up to 1 μm smaller).
The particle size analysis data are usually reported as cumulative undersized distribution by volume. The symbol x is used to denote the particle size, which is defined as diameter of a volume equivalent sphere. Most common characteristic values are calculated from the particle size distribution by interpolation. Frequently used are the particle sizes at the undersize values of 10%, 50% and 90% of the volume distribution, denoted as x10, x50 and x90. x50 is also known as median particle size. The symbol d is widely used to designate the particle size, thus the symbol x may be replaced by the symbol d.

Data set [2] has as its system rabbit saphenous artery. Nature of the data set: Vasorelaxant effect in vitro: phenylephrine-induced contraction of rabbit saphenous artery rings (C-1.1). The following applies: mean +/− SEM. The method, then:
Rabbits were anaesthetized and sacrificed by intravenous injection of thiopental sodium (about 50 mg/kg) and exsanguinated. The saphenous artery was removed and divided into rings 3 mm wide. The rings were mounted singly on in each case a pair of triangular hooks open at the end and made of 0.3 mm-thick special wire (Remanium®). Each ring was placed under an initial tension in 5 ml organ baths with Krebs-Henseleit solution which was at 37° C., was gassed with carbogen and had the following composition: NaCl 119 mM; KCl 4.8 mM; CaCl2)×2 H2O 1 mM; MgSO4×7 H2O 1.4 mM; KH2PO41.2 mM; NaHCO325 mM; glucose 10 mM; bovine serum albumin 0.001%. The force of contraction was detected with Statham UC2 cells, amplified and digitized via A/D converters (DAS-1802 HC, Keithley Instruments, Munich) and recorded in parallel on chart recorders. Contractions were induced by addition of phenylephrine.
The concentration necessary to reduce the contraction reached in the preceding control by 50% was calculated from this (IC50). The standard application volume was 5 μl. The proportion of DMSO in the bath solution corresponded to 0.1%.

In data set [3] the test system is anesthetized PAH minipigs. Nature of the data set: PAH minipig model: intratracheal application of dry powder formulations and different hydrates (PennCentury insufflator). The format is in vivo, Göttingen minipig. Particulars: for BP (mean) / PAP(mean) / BP % changes vs. prevalues / PAP % changes vs. prevalues: 375 μg/kg i.t.; for BP (mean) / PAP(mean): absolute values; for BP % changes vs. prevalues / PAP % changes vs. prevalues: each animal. The text has this:
After characterization of the effects of comparative example 11 after nebulization of compound solutions, in a further step the effects of crystalline forms of comparative example 11, e.g. sesquihydrate, e.g. example 6e on PAP and BP after inhaled application of different dry powder lactose formulations (table C2.1.8) were studied in anesthetized PAH minipigs.
As reference pure Lactose vehicle was applied in the beginning of each experiment.

Where “and” joins values, the source holds several entries; their conditions need not be identical. Equal entries are not always repeated.

Regarding `O.O=C(O)c1ccc(CCN(CCc2ccccc2OCc2ccc(-c3ccc(C(F)(F)F)cc3)cc2Cl)[C@H]2CCCc3nc(C(=O)O)ccc32)cc1` [8c], in data set [1], the “PSD X10” value is listed as “X10: 0.4 μm,”, the “PSD X50” value was “X50: 1.8 μm,” and the “PSD X90” value is reported as “X90: 4.8 μm”.

Take `O.O=C(O)c1ccc(CCN(CCc2ccccc2OCc2ccc(-c3ccc(C(F)(F)F)cc3)cc2Cl)[C@H]2CCCc3nc(C(=O)O)ccc32)cc1` [example 8b]: in data set [1], the “PSD X10” value is on record as “X10: 0.7 μm,”, the “PSD X50” value is “X50: 1.9 μm,” and the “PSD X90” value is “X90: 5.0 μm”.

`O=C(O)CCCCN(CCc1ccccc1OCc1ccc(CCc2ccccc2)cc1)Cc1ccc(C(=O)O)cc1` [comparative example 1 (Cinaciguat)]: the “% contraction (PE-induced contraction of rabbit saphenous artery)” value in data set [2] (10^−6 M/L, incubation time 0.5 h) is given as 19 ± 6.1%; in data set [2] (10^−7 M/L, incubation time 0.5 h), 28 ± 4.2%; in data set [2] (10^−7 M/L, incubation time 2.5 h) it was 33 ± 5.8%; in data set [2] (10^−8 M/L, incubation time 0.5 h), 54 ± 5.2%; in data set [2] (10^−8 M/L, incubation time 2.5 h), 48 ± 6.0%; in data set [2] (10^−9 M/L, incubation time 0.5 h), 85 ± 4.2%. Also, the “% contraction (PE-induced contraction of rabbit saphenous artery)” value is given as 75 ± 4.6% in data set [2] (10^−9 M/L, incubation time 2.5 h); 101 ± 1.7% in data set [2] (10^−10 M/L, incubation time 0.5 h); 93 ± 2.6% in data set [2] (10^−10 M/L, incubation time 2.5 h); 97 ± 1.2% in data set [2] (10^−11 M/L, incubation time 0.5 h).

For `O.O=C(O)c1ccc(CCN(CCc2ccccc2OCc2ccc(-c3ccc(C(F)(F)F)cc3)cc2Cl)[C@H]2CCCc3nc(C(=O)O)ccc32)cc1.O=C(O)c1ccc(CCN(CCc2ccccc2OCc2ccc(-c3ccc(C(F)(F)F)cc3)cc2Cl)[C@H]2CCCc3nc(C(=O)O)ccc32)cc1` [example 6a, (5S)-{[2-(4-Carboxyphenyl)ethyl][2-(2-{[3-chloro-4′-(trifluoromethyl)biphenyl-4-yl]methoxy}phenyl)-ethyl]amino}-5,6,7,8-tetrahydroquinoline-2-carboxylic acid semihydrate], the “efficacy with regard to PAP reduction as well as systemic BP reduction” value in data set [3] (1.5 mg/4 kg (=375 μg/kg) intratracheally, micronized) is given as “comparable efficacy”. Also, the “BP (mean)” value in data set [3] (time 0) was 101 mmHg and 85 mmHg; in data set [3] (time 10), 103 mmHg and 83 mmHg and 79 mmHg; in data set [3] (time 20) it was 101 mmHg and 83 mmHg and 84 mmHg; in data set [3] (time 30), 100 mmHg and 81 mmHg and 88 mmHg; in data set [3] (time 40), 98 mmHg and 81 mmHg and 90 mmHg; in data set [3] (time 50), 99 mmHg and 78 mmHg and 89 mmHg. Moreover, the “BP (mean)” value in data set [3] (time 60) was 100 mmHg and 79 mmHg and 86 mmHg; in data set [3] (time 70), 102 mmHg and 78 mmHg and 87 mmHg; in data set [3] (time 80) it was 102 mmHg and 79 mmHg and 90 mmHg; in data set [3] (time 90), 101 mmHg and 81 mmHg and 92 mmHg; in data set [3] (time 100), 100 mmHg and 80 mmHg and 95 mmHg; in data set [3] (time 110), 99 mmHg and 79 mmHg. Besides, the “BP (mean)” value in data set [3] (time 120) was 99 mmHg and 79 mmHg and 96 mmHg; in data set [3] (time 130), 98 mmHg and 81 mmHg and 97 mmHg; in data set [3] (time 140), 99 mmHg and 82 mmHg and 98 mmHg; in data set [3] (time 150) it was 97 mmHg and 82 mmHg; in data set [3] (time −10) it was 99 mmHg and 85 mmHg and 86 mmHg. Further, the “PAP(mean)” value in data set [3] (time 0) is 39.6 mmHg and 40.8 mmHg and 38.5 mmHg; in data set [3] (time 10), 40.2 mmHg and 41.1 mmHg; in data set [3] (time 20), 40.4 mmHg and 41.3 mmHg; in data set [3] (time 30) it was 40.2 mmHg and 41.3 mmHg; in data set [3] (time 40) it was 40.4 mmHg and 41.8 mmHg and 41.0 mmHg; in data set [3] (time 50), 40.7 mmHg and 41.7 mmHg and 40.9 mmHg. Also, the “PAP(mean)” value in data set [3] (time 60) is 41.2 mmHg and 42.0 mmHg and 40.9 mmHg; in data set [3] (time 70), 38.8 mmHg and 40.6 mmHg and 40.1 mmHg; in data set [3] (time 80), 34.1 mmHg and 39.9 mmHg and 37.7 mmHg; in data set [3] (time 90) it was 30.1 mmHg and 37.7 mmHg and 36.6 mmHg; in data set [3] (time 100), 28.3 mmHg and 35.9 mmHg and 35.0 mmHg; in data set [3] (time 110), 27.2 mmHg and 34.8 mmHg and 34.0 mmHg. Moreover, the “PAP(mean)” value in data set [3] (time 120) is 26.4 mmHg and 34.1 mmHg and 32.9 mmHg; in data set [3] (time 130), 25.7 mmHg and 33.7 mmHg and 31.7 mmHg; in data set [3] (time 140), 25.3 mmHg and 33.2 mmHg and 31.3 mmHg; in data set [3] (time 150) it was 25.0 mmHg and 32.9 mmHg and 30.7 mmHg; in data set [3] (time 160), 24.5 mmHg and 32.5 mmHg and 30.2 mmHg; in data set [3] (time −10) it was 38.7 mmHg and 40.6 mmHg. Moreover, the “BP % changes vs. prevalues” in data set [3] (time 50) is 99.6% and 98.4% and 100.6%; in data set [3] (time 60), 100.6% and 99.7% and 97.2%; in data set [3] (time 70), 102.6% and 98.4% (2×); in data set [3] (time 80) it was 102.6% and 99.7% and 101.8%; in data set [3] (time 90), 101.6% and 102.2% and 104.0%; in data set [3] (time 100), 100.6% and 101.0% and 107.4%. Further, the “BP % changes vs. prevalues” in data set [3] (time 110) was 99.6% and 99.7% and 111.9%; in data set [3] (time 120), 99.6% and 99.7% and 108.6%; in data set [3] (time 130), 98.6% and 102.2% and 109.7%; in data set [3] (time 140) it was 99.6% and 103.5% and 110.8%; in data set [3] (time 150), 97.6% and 103.5% and 109.7%; in data set [3] (time 160) it was 96.6% and 102.2% and 109.7%. For the same compound, the “BP % changes vs. prevalues” in data set [3] (time 170) is 95.6% and 99.7% and 107.4%; in data set [3] (time 180), 94.6% and 99.7% and 106.3%; in data set [3] (time 190), 94.6% and 108.5% and 105.2%; in data set [3] (time 200), 92.6% and 107.3% and 104.0%; in data set [3] (time 210), 90.6% and 102.2% and 102.9%. The “PAP % changes vs. prevalues” is 99.3% and 98.7% and 98.9% in data set [3] (time 50); 100.7% and 99.4% and 99.2% in data set [3] (time 60); 94.7% and 96.1% and 97.0% in data set [3] (time 70); 83.4% and 94.5% and 91.2% in data set [3] (time 80); 73.4% and 89.2% and 88.7% in data set [3] (time 90); 69.0% and 85.0% and 84.7% in data set [3] (time 100). Further, the “PAP % changes vs. prevalues” is 66.5% and 82.4% and 82.1% in data set [3] (time 110); 64.4% and 80.8% and 79.7% in data set [3] (time 120); 62.8% and 79.9% and 76.7% in data set [3] (time 130); 61.8% and 78.7% and 75.7% in data set [3] (time 140); 60.9% and 78.0% and 74.3% in data set [3] (time 150); 59.9% and 77.1% and 73.1% in data set [3] (time 160). Moreover, the “PAP % changes vs. prevalues” is 58.6% and 76.7% and 72.3% in data set [3] (time 170); 58.0% and 75.4% and 71.8% in data set [3] (time 180); 59.5% and 78.4% and 70.7% in data set [3] (time 190); 60.5% and 76.8% and 71.1% in data set [3] (time 200); 60.6% in data set [3] (time 210).
